Assay results taken from patent US10538490B2, “Benzylaminopyridylcyclopropanecarboxylic acids, pharmaceutical compositions and uses thereof” (Boehringer Ingelheim International GmbH, priority 2016, dated 2020).
Values after ≈ are worked out from the molar mass of the structure shown.

Key:
[1] = Aqueous solubility in buffer versus acetonitrile/water (1/1), LC-UV; format: physicochemical; conditions: kinetic from dmso stock, buffer pH 2.2, 24 h shaking, 2.5% DMSO, ">" if more than 90% dissolved
Protocol: The aqueous solubility of the compounds of the invention is determined by comparing the amount dissolved in buffer to the amount in an acetonitrile/water (1/1) solution. Starting from a 10 mM DMSO stock solution aliquots are diluted with acetonitrile/water (1/1) or buffer, respectively. After 24 h of shaking, the solutions are filtrated and analyzed by LC-UV. The amount dissolved in buffer is compared to the amount in the acetonitrile solution.
Solubility is usually being measured from 0.001 to 0.125 mg/mL at a DMSO concentration of 2.5%. If more than 90% of the compound is dissolved in buffer, the value is marked with “>”.

[2] = molecular target: human GPR40 receptor (Homo sapiens, UniProt O14842); test: IP1 accumulation measurements using the IPOne assay system; format: cell-based; conditions: 1321N1 cells stably expressing human GPR40 receptor, stimulation 1 h at 37° C.
Protocol: IP1 accumulation measurements using the IPOne assay system—1321N1 cells stably expressing human GPR40 receptor (Euroscreen, Belgium) are seeded 24 h before the assay in white 384-well plates in culture medium containing 10% FCS, 1% Na-Pyruvate and 400 μg/mL G418. IPi is assayed according to the manufacturer's description (Cisbio Bioassays, France). In brief, the assay is started by substitution of the culture medium by stimulation buffer (Hepes 10 mM, CaCl2 1 mM, MgCl2 0.5 mM, KCl 4.2 mM, NaCl 146 mM, glucose 5.5 mM and LiCl 50 mM, pH 7.4). Cells are stimulated for 1 h at 37° C., 5% CO2 by addition of the compounds that are diluted in stimulation buffer containing LiCl. Assays are stopped by adding HTRF-conjugates (IP1-d2 and Anti-IP1 cryptate Tb) and lysis buffer, provided by the manufacturer. After an incubation time of 1 h at room temperature plates are measured using an EnVision™, Perkin Elmer. The obtained fluorescence ratios at 665/615 […] are then used to calculate the pEC50 values using Assay Explorer 3.3 Software (Accelrys, Inc.) by interpolation using an IP1 reference curve and subsequent sigmoidal curve fitting allowing for a variable hill slope.

[3] = Chemical stability (degradation kinetics) at pH value of ca. 1.2; format: physicochemical; conditions: pH value of ca. 1.2 (acetonitrile/0.1 M aqueous HCl 2:3), 37° C., HPLC
Protocol: Degradation kinetics is used to simulate chemical stability of compounds in the acidic part of the gastro intestinal tract. […] Their application as medical drugs to treat human diseases is therefore less restricted and troublesome.
The chemical stability of the compounds of the invention at pH value of ca. 1.2 is determined as follows:
Compound is dissolved in an HPLC vial either in a mixture of acetonitrile/0.1 M aqueous HCl (2:3; pH ca. 1.2) or in a mixture of acetonitrile/Mcllvaine buffer pH 7.4 (2:3) to get a concentration of approximately 0.25 mg/ml. The vial was then transferred into an HPLC autosampler system and maintained at a temperature of 37° C. A first sample is taken and injected immediately into a standard HPLC system with a UV DAD detector. Further samples are injected after 2, 4, 6, 8 and 10 hours. Amount of degraded compound is measured by determining the recovery rate of compound [%] for each injection using an HPLC standard gradient method. Therefore the peak area of the main peak for the first injection (AUt0) is determined and set as 100%. Peak area of the main peak is determined also for the further injections (AUtn, n=2, 4, 6, 8, 10) and expressed as fraction of […] [%].

Chain of human GPR40 receptor (O14842 whole entry): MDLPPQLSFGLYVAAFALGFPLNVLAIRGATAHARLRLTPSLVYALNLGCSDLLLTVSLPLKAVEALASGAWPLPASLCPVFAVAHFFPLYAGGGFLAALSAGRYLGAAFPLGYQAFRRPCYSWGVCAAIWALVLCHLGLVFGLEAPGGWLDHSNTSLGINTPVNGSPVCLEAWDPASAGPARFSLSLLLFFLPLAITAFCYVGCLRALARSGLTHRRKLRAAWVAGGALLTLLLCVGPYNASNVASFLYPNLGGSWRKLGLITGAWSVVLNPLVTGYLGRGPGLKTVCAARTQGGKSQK

Cc1cc(-c2nnn(C)n2)cc(C)c1-c1ccc(F)c(CNc2ccc([C@H]3C[C@@H]3C(=O)O)cn2)c1 [Example 48]
solubility at 24 h [1]: 102 µg/mL (≈ 216 µM)
EC50 [2]: 20 nM
Amount of degradation after 2 h [3]: <0.5%
